# Measurements published in PMC11514582, “Leveraging the Aggregated Protein Dye YAT2150 for Malaria Chemotherapy” (Pharmaceutics, 2024).
# Columns and labels:
# [1] = cited from earlier work
# 3D7 P. falciparum = assay: Parasite-killing profile (parasite viability after 10x IC50); format: cell-based, Plasmodium falciparum; settings: treatment for 24 h with 10× IC50
# Protocol: After the treatment, the drug was removed and the culture diluted 1/3 and re-established in RBCs labeled with carboxyfluorescein diacetate succinimidyl ester (CFDA-SE, Life Technologies) to a 2% hematocrit in order to evaluate the reinfection capacity of the treated parasites. CFDA-SE-labelled erythrocytes were prepared by incubating 1% hematocrit in RPMI containing 10 μM CFDA-SE at 37 °C for 30 min, after which they were washed and maintained at 50% hematocrit at 4 °C for up to 24 h before use. Parasites were grown for 48 h, a complete replication cycle, in standard culturing conditions (5% O2, 5% CO2, and 90% N2 at 37 °C). After this incubation time, parasitemia was assessed by two-color flow cytometry (Attune NxT Flow Cytometer, Thermo Fisher Scientific, Inc.) using Hoechst 33342 to stain nuclei. Hoechst 33342 fluorescence signal was detected by exciting samples at 405 nm and collecting the emission with a 440/50-nm bandpass filter (VL1), whereas CFDA-SE was excited at 488 nm and detected with a 530/30 nm filter. Samples were analyzed using the Attune NxT software package 3.2.1, and parasite viability was plotted as the percentage of infected CFDA-SE-stained erythrocytes, using as reference untreated samples of the initial inoculum after 48 h of incubation with labeled erythrocytes.
# [2] = Cytotoxicity assay in THP-1 (MTT); format: cell-based; settings: human, THP-1 cells, read-out: THP-1 inhibition (CC50)
# Protocol: THP-1 human acute monocytic leukemia cells and NCI-H460 human lung carcinoma cells were grown in RPMI supplemented with 10% FBS. Hep-G2 human hepatocellular carcinoma cells were cultured in Eagle’s minimum essential medium (EMEM) supplemented with 10% FBS. A2780 human ovarian carcinoma cells were grown in RPMI supplemented with 10% FBS and 2 mM L-glutamine. MCF-7 human breast adenocarcinoma cells were cultured in EMEM containing 2 mM L-glutamine and Earle’s balanced salt solution adjusted with 1.5 g/L sodium bicarbonate, 0.1 mM non-essential amino acids, and 1 mM sodium pyruvate and supplemented with 10% FBS. […] Except for Caco-2 and HUVEC, inhibition of cell growth was evaluated using a protocol based on monitoring the transformation into formazan of the tetrazolium salt of MTT (3-(4,5-dimethylthiazol-2-yl)-2,5-diphenyltretrazolium bromide) by metabolically active cells. […] After 96 further h of incubation in the same conditions, 10 µL of a 5 mg/mL MTT solution in PBS was added to each sample, and the incubation was resumed for another 4 h. […] The absorbance measurement range was framed between one sample containing 4000 cells in plain growth medium (to determine the stable cell concentration) and another sample containing an equal cell number in growth medium supplemented with growth factors (to measure the maximum cell growth at 96 h).
# [3] = In vivo toxicity in C. elegans; set-up: species or system Caenorhabditis elegans; settings: N2 Bristol, Caenorhabditis elegans, in vivo; 48 h, viability
# Protocol: (§1) The Caenorhabditis elegans N2 Bristol strain (kindly provided by Dr. Christian Griñán-Ferré) was cultured, following established methods, in 90 mm Petri dishes containing solid Nematode Growth Media (NGM) seeded with E. coli OP50 (100 µL of an overnight culture spread on top of the NGM), maintained at 20 °C, and expanded to new plates once a week by transferring a 1-cm^3 NGM cube to a new plate. […] To do this, a plate with gravid adult worms was washed twice with 5 mL of M9 buffer (20 mM KH2PO4, 42 mM Na2HPO4, 86 mM NaCl, 1 mM MgSO4), and the nematodes were transferred to a 15-mL conical tube, where they were pelleted (400× g, 2 min). […] C. elegans viability and body length were analyzed after 48 h under a stereomicroscope (Leica M50 Routine Stereo Microscope; Leica Microsystems GmbH), taking representative images and videos with a 4× objective. C. elegans viability was determined in three experimentally independent replicas according to two variables: body shape (stiff, rod-like worms were counted as dead, as opposite to s-shaped live worms) and presence of movement in living C. elegans, with an n ≥ 100 worms/sample. Nematode body length was calculated with ImageJ software in worms anesthetized with 50 mM sodium azide. Statistically significant differences between groups were determined by the two-way analysis of variance (ANOVA) using GraphPad Prism 9.0.1.
# C. elegans = assay: In vivo toxicity in C. elegans; set-up: species or system Caenorhabditis elegans; settings: non-encapsulated, 50 µM
# Protocol: as §1
# [4] = tested on: P. berghei oocysts in A. gambiae mosquitoes; assay: Membrane blood feeding assay (oocyst production in mosquitoes); format: in vivo, Plasmodium berghei; settings: 10 µM in blood meal; 7 days
# Protocol: The Anopheles gambiae mosquito G3 strain was reared under standard conditions at 28 °C and 80% humidity. One to two days before blood feeding, the mosquitoes were fed penicillin (20 U/mL) and streptomycin (20 μg/mL) in the sugar meal (10% sucrose). Mice were infected with the P. berghei mutant Bergreen, which constitutively expresses GFP [18]. Blood was obtained by heart puncture of one mouse, and aliquoted in two tubes that were immediately placed at 37 °C. YAT2150 at a final concentration of 10 µM diluted from a stock solution in dimethyl sulfoxide (DMSO) was added to one tube. The control tube contained the same concentration of DMSO (0.5%). After the feeding carried out in membrane feeders for 60 min, mosquitoes were kept at 19 °C and provided with sugar meal containing the antibiotics as above. Seven days after feeding, the mosquitoes were dissected in PBS, mounted in […]®, and GFP-positive oocysts were counted under an Axioskop 2 microscope (Zeiss, Oberkochen, Germany).
# [5] = tested on: P. falciparum asexual blood stages; settings: read-out: in vitro IC50 in P. falciparum cultures, including gametocytes; cited from earlier work
smiles,measurement,setting,value
CCN(CC)c1ccc(/C=C/c2cc[n+](CCCCCCCCCC[n+]3ccc(/C=C/c4ccc(N(CC)CC)cc4)c(C)c3)cc2C)cc1 [YAT2150],Microsomal stability (% remaining after 1 h),"[1]; human microsomes, 37 °C",54.6 ^7%
same,Microsomal stability T1/2,"[1]; human, microsomes",80.5 ^7 min
same,parasite survival,3D7 P. falciparum,8.5%
same,CC50 at 96 h,[2],0.66 ± 0.01 µM
same,IC50 at 48 h,[3],16.2 ± 1.4 µM
same,nematode survival/length assay observation,C. elegans,No worms could be found
same,oocyst number/midgut compared to the control,[4],significantly reduced
same,prevalence of infection compared to the control,[4],significantly reduced
same,IC50,[5],< 0.1 µM
